Test results taken from patent US11440911B2, “Salts and crystals” (INTRA-CELLULAR THERAPIES, INC., priority 2017, dated 2022).

Experiments:
[1] = salt form of U.S. Pat. No. 7,183,282, precipitated from diethyl ether; cited from earlier work
[2] = solubility of free base in organic solvents; assay type: physicochemical; conditions: variety of organic solvents
H1 histaminergic = H1 histaminergic (Homo sapiens, UniProt P35367); conditions: cited from earlier work
5-HT2C = target: T1, 5-HT2C (Homo sapiens, UniProt P28335); conditions: cited from earlier work
T1 sequence (P28335 33-458): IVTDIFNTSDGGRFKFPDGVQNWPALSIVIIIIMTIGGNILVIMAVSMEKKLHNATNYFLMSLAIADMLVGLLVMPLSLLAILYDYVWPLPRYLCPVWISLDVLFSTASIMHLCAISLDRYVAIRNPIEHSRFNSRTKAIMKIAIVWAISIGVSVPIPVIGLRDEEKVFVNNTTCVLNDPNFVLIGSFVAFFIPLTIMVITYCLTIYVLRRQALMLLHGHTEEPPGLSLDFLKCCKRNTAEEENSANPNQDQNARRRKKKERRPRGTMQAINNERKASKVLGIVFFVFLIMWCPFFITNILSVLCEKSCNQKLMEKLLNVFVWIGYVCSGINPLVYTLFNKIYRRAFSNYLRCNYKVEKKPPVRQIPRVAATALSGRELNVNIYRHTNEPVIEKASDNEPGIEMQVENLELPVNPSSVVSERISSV

muscarinic = conditions: cited from earlier work
[3] = free base form; cited from earlier work

H1 histaminergic, sequence (P35367 whole entry): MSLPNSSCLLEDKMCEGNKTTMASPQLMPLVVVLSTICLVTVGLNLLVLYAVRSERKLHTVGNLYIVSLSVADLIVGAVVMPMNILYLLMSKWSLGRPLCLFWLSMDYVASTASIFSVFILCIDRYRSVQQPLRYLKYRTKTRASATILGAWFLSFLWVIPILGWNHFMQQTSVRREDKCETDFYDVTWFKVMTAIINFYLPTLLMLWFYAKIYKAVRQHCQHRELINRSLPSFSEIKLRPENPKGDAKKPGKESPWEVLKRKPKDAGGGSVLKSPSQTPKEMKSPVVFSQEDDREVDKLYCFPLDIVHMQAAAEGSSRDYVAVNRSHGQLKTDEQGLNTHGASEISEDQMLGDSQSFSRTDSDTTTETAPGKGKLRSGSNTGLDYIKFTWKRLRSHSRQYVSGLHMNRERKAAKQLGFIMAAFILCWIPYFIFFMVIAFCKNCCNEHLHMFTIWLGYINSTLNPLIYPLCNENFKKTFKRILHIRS

solubility in organic solvents [2] | SMILES | hygroscopicity [1] | stability [1] | binding to receptor (H1 histaminergic) | binding to receptor (5-HT2C) | binding to receptor (muscarinic) | aqueous solubility [3]
 | CN1CCN2c3c(cccc31)C1CN(CCCC(=O)c3ccc(F)cc3)CCC12.Cl (stereo not shown) [hydrochloride salt form of ITI-007] | hygroscopic | poor stability |  |  |  | 
good solubility | CN1CCN2c3c(cccc31)[C@@H]1CN(CCCC(=O)c3ccc(F)cc3)CC[C@@H]12 [ITI-007, 1-(4-fluoro-phenyl)-4-((6bR,10aS)-3-methyl-2,3,6b,9,10,10a-hexahydro-1H,7H-pyrido[3′,4′:4,5]pyrrolo[1,2,3-de]quinoxalin-8-yl)-butan-1-one] |  |  | negligible binding | negligible binding | negligible binding | poor aqueous solubility
